Data from patent publication US6605308B2, “Pathogen management system” (Tomoco2 Equipment Company, priority 2001, dated 2003).
Like-named read-outs stand apart in the source and are kept apart here.

Assays:
Listeria monocytogenes = conditions: 8% TSP, 10 minutes, room temperature, colony grown on a surface with biofilm; cited from earlier work
Salmonella = Salmonella in chiller water, plant test at Springdale, Ark.
E-Coli [1] = experiment: E-Coli testing at immersion chiller, plant test at Dallas, Tex.
APC = APC on carcass after IOBW, Natchitoches, La.; conditions: standard nozzles, 13 seconds of wash time
Coliform = Coliform on carcass after IOBW, Natchitoches, La.; conditions: standard nozzles, 13 seconds of wash time
E-Coli [2] = experiment: E-Coli on carcass after IOBW, Natchitoches, La.; conditions: standard nozzles, 13 seconds of wash time
Experimental: More tests are being conducted at a facility in Natchitoches, La. The project began by adding hypochlorous acid to the IOBW on-line. Tests were performed on the carcass before and after the IOBW. APC, Coliform and E-Coli test were run on the carcass. Average APC of the carcass entering the IOBW was 90,559 cfu/ml, Coliform of 2,103 cfu/ml and E-Coli of 1,429 cfu/ml. After adding hypochlorous acid to the existing IOBW, using standard nozzles, a major reduction in the numbers was found. The average APC was 12,792, Coliform 664 cfu/ml and E. coli 383 cfu/ml. This was only with 13 seconds of wash time.

E-Coli [3] = experiment: E-Coli testing at chiller system, Natchitoches, La.
pathogens = experiment: Initial one-control-point testing at the immersion chillers, chiller water samples
Source text: In a preferred embodiment, a hypochlorous acid stream is used in more than one discrete location along a poultry processing line, although preliminary investigations for pathogens began as a one-control point approach in the process at the immersion chillers.
Samples of chiller water determined that it was sterilized with hypochlorous acid. It appeared that the disinfecting capabilities were maximized at the chiller.

[4] = cited from earlier work
microorganisms = conditions: versus OCl-; cited from earlier work
[5] = December, 121 samples so far, chiller plus pick/kill room system
[6] = July, 254 samples, system on chiller
[7] = November, 251 samples, chiller plus pick/kill room system

In the case of `O=P([O-])([O-])[O-].[Na+].[Na+].[Na+]` [TSP, Trisodium phosphate], the “reduction of bacterial numbers” value (Listeria monocytogenes) is given as 1 log10.
With `[Ca+2].[O-]Cl.[O-]Cl` [calcium hypochlorite solution, calcium hypochlorite] the “reduction in Salmonella” value (Salmonella) was 40% and the “samples returned with a positive result of Salmonella” value (Salmonella; of 83 samples, four weeks, injected into chiller recirculation lines without pH control) was 16 samples.
In the case of `OCl` [hypochlorous acid], the “samples returned positive (Salmonella)” value (Salmonella; of 41 samples over three weeks, 98% hypochlorous acid solution injected into chiller recirculation lines) is reported as 2 samples, the E-Coli detection rate (E-Coli [1]; April) is reported as 14% and the “samples below 100 cfu/ml” value (E-Coli [1]; April) is reported as 99%. The “samples with E-Coli detected” value (E-Coli [1]; April, of 264 samples) was 37 samples, the E-Coli detection rate (E-Coli [1]; March) was 28% and the “samples below 100 cfu/ml” value (E-Coli [1]; March) was 83%. The “samples with E-Coli detected” value (E-Coli [1]; March, of 264 samples) was 76 samples, the E-Coli detection rate (E-Coli [1]; May) was 8% and the “samples below 100 cfu/ml” value (E-Coli [1]; May) was 100%. The “samples with E-Coli detected” value (E-Coli [1]; May, of 276 samples) was 23 samples, the “average APC” value (APC) was 12,792 cfu/ml and the “average Coliform” value (Coliform) was 664 cfu/ml. For the same molecule, the “average E. coli” value (E-Coli [2]) was 383 cfu/ml, the “samples over 10 cfu/ml” value (E-Coli [3]; [5]) was 28% and the “samples over 100 cfu/ml (number)” value (E-Coli [3]; [5]) was “two”. For the same molecule, the “samples over 10 cfu/ml” value (E-Coli [3]; [6]) was 38%, the “samples over 100 cfu/ml” value (E-Coli [3]; [6]) was 5% and the “samples over 10 cfu/ml” value (E-Coli [3]; [7]) was 20%. The “samples over 100 cfu/ml (number)” value (E-Coli [3]; [7]) was “one”, the “state of chiller water samples” value (pathogens) was “sterilized” and the “Percent HOCl” value ([4]; pH 5.0, 0 °C) was 99.85%. The “Percent HOCl” value ([4]; pH 5.0, 5 °C) was 99.83%, the “Percent HOCl” value ([4]; pH 5.0, 10 °C) was 99.80% and the “Percent HOCl” value ([4]; pH 5.0, 15 °C) was 99.77%. The “Percent HOCl” value ([4]; pH 5.0, 20 °C) was 99.74%, the “Percent HOCl” value ([4]; pH 5.0, 25 °C) was 99.71% and the “Percent HOCl” value ([4]; pH 5.0, 30 °C) was 99.68%. The “Percent HOCl” value ([4]; pH 5.5, 0 °C) was 99.53%, the “Percent HOCl” value ([4]; pH 5.5, 5 °C) was 99.75% and the “Percent HOCl” value ([4]; pH 5.5, 10 °C) was 99.36%. For the same molecule, the “Percent HOCl” value ([4]; pH 5.5, 15 °C) was 99.27%, the “Percent HOCl” value ([4]; pH 5.5, 20 °C) was 99.18% and the “Percent HOCl” value ([4]; pH 5.5, 25 °C) was 99.09%. The “Percent HOCl” value ([4]; pH 5.5, 30 °C) was 99.01%, the “Percent HOCl” value ([4]; pH 6.0, 0 °C) was 98.53% and the “Percent HOCl” value ([4]; pH 6.0, 5 °C) was 98.28%. For the same molecule, the “Percent HOCl” value ([4]; pH 6.0, 10 °C) was 98.01%, the “Percent HOCl” value ([4]; pH 6.0, 15 °C) was 97.73% and the “Percent HOCl” value ([4]; pH 6.0, 20 °C) was 97.45%. The “Percent HOCl” value ([4]; pH 6.0, 25 °C) was 97.18%, the “Percent HOCl” value ([4]; pH 6.0, 30 °C) was 96.92% and the “Percent HOCl” value ([4]; pH 7.0, 0 °C) was 87.05%. For the same molecule, the “Percent HOCl” value ([4]; pH 7.0, 5 °C) was 85.08%, the “Percent HOCl” value ([4]; pH 7.0, 10 °C) was 83.11% and the “Percent HOCl” value ([4]; pH 7.0, 15 °C) was 81.17%. For the same molecule, the “Percent HOCl” value ([4]; pH 7.0, 20 °C) was 79.23%, the “Percent HOCl” value ([4]; pH 7.0, 25 °C) was 77.53% and the “Percent HOCl” value ([4]; pH 7.0, 30 °C) was 75.90%. The “Percent HOCl” value ([4]; pH 8.0, 0 °C) was 40.19%, the “Percent HOCl” value ([4]; pH 8.0, 5 °C) was 36.32% and the “Percent HOCl” value ([4]; pH 8.0, 10 °C) was 32.98%. For the same molecule, the “Percent HOCl” value ([4]; pH 8.0, 15 °C) was 30.12%, the “Percent HOCl” value ([4]; pH 8.0, 20 °C) was 27.62% and the “Percent HOCl” value ([4]; pH 8.0, 25 °C) was 25.65%. For the same molecule, the “Percent HOCl” value ([4]; pH 8.0, 30 °C) was 23.95%, the “Percent HOCl” value ([4]; pH 9.0, 0 °C) was 6.30% and the “Percent HOCl” value ([4]; pH 9.0, 5 °C) was 5.40%. For the same molecule, the “Percent HOCl” value ([4]; pH 9.0, 10 °C) was 4.69%, the “Percent HOCl” value ([4]; pH 9.0, 15 °C) was 4.13% and the “Percent HOCl” value ([4]; pH 9.0, 20 °C) was 3.68%. The “Percent HOCl” value ([4]; pH 9.0, 25 °C) was 3.34%, the “Percent HOCl” value ([4]; pH 9.0, 30 °C) was 3.05% and the “Percent HOCl” value ([4]; pH 10.0, 0 °C) was 0.67%. The “Percent HOCl” value ([4]; pH 10.0, 5 °C) was 0.57%, the “Percent HOCl” value ([4]; pH 10.0, 10 °C) was 0.49% and the “Percent HOCl” value ([4]; pH 10.0, 15 °C) was 0.43%. The “Percent HOCl” value ([4]; pH 10.0, 20 °C) was 0.38%, the “Percent HOCl” value ([4]; pH 10.0, 25 °C) was 0.34% and the “Percent HOCl” value ([4]; pH 10.0, 30 °C) was 0.31%. For the same molecule, the “Percent HOCl” value ([4]; pH 11.0, 0 °C) was 0.067%, the “Percent HOCl” value ([4]; pH 11.0, 5 °C) was 0.057% and the “Percent HOCl” value ([4]; pH 11.0, 10 °C) was 0.049%. For the same molecule, the “Percent HOCl” value ([4]; pH 11.0, 15 °C) was 0.043%, the “Percent HOCl” value ([4]; pH 11.0, 20 °C) was 0.038% and the “Percent HOCl” value ([4]; pH 11.0, 25 °C) was 0.034%. The “Percent HOCl” value ([4]; pH 11.0, 30 °C) was 0.031% and the “effectiveness for killing microorganisms relative to OCl-” value (microorganisms) was “about 80 times”.
